Assay results: patent US8436011B2, “Pyridinopyridinone derivatives, preparation thereof and therapeutic use thereof” (Sanofi, priority 2008, dated 2013)
Like-named read-outs stand apart in the source and are kept apart here.

Tests used:
[1] = biological target: T1, FLT3 receptor (MV4-11 cell line bearing an FLT3ITD mutant) (Homo sapiens, UniProt P36888, INS600HVDFREYEYD); experiment: Inhibition of FLT3 receptor tyrosine kinase activity: proliferation of MV4-11 cells (CellTiter-Glo, 72 h); type: cell-based; settings: 72 hours incubation, read-out: IC50 (concentration that inhibits 50% of the proliferation of the MV4-11 cells)
T1 construct: MV4-11 cell line, which line is established from a leukaemia of constitutively active AML type bearing an FLT3ITD mutant; endogenous in cells; host or cells: MV4-11
T1 sequence (P36888 with tags, fused parts or gaps INS600HVDFREYEYD): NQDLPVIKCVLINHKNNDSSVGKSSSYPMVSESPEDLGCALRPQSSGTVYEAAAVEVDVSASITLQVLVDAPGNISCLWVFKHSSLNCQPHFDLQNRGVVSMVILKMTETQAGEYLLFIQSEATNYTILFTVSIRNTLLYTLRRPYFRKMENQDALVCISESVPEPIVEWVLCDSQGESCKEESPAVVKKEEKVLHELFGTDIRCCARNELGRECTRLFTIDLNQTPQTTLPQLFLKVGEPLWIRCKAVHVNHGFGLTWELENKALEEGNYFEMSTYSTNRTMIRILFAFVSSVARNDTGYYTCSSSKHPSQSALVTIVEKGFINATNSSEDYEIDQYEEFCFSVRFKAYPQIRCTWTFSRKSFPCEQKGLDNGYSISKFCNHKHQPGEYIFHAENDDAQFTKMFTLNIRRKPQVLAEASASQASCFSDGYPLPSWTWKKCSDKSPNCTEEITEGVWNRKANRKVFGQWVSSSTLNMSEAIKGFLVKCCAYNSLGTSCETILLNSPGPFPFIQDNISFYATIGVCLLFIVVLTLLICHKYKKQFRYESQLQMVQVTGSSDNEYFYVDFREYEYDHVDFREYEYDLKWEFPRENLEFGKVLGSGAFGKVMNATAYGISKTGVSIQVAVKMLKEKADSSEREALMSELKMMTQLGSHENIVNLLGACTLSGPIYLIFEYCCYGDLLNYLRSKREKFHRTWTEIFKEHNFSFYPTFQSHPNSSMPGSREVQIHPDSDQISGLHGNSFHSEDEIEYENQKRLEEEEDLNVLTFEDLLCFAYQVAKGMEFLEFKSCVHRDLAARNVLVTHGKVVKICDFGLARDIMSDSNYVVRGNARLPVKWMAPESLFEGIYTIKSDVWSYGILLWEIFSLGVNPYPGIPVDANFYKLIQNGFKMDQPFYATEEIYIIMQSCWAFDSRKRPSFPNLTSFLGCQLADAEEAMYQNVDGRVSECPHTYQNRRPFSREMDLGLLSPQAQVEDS
Procedure: Measurement of Inhibition of the Tyrosine Kinase Activity of the FLT3 Receptor
The inhibitory effect of the compounds according to the invention towards the tyrosine kinase activity of the FLT3 receptor was evaluated on an MV4-11 cell line, which line is established from a leukaemia of constitutively active AML type bearing an FLT3ITD mutant. The inhibitory activity is correlated to the inhibition of cell growth, according to the protocols described by Spiekermann, K. et al., Blood, 2003, 101, (4) 1494-1504 and O'Farrell, A.-M. et al., Blood, 2003, 101, (9) 3597-3605.
MV4-11 cells are washed with PBS buffer and inoculated in 96-well plates, at a density of 1×10^5 cells/ml (100 μL per well), in RPMI 1640 containing 10% FCS, in the presence or absence of the test compounds. After incubation for 72 hours, the viable cells are quantified by measuring the cellular ATP by means of the CellTiter-Glo® kit (Promega, Cat G7571). The cells are treated according to the instructions given by the kit manufacturer, and the luminescence is measured using a Luminoskan (Ascent, Labsystem) with the following parameters: measurement: single; integration time: 1000 ms, lag time: 5 s.
The inhibitory activity with respect to the FLT3 receptor is given by the concentration that inhibits 50% of the proliferation of the MV4-11 cells.

[2] = biological target: T2, fusion protein Tel/PDGF-R (PDGF-Rβ kinase domain) in HEK cells (Homo sapiens, UniProt P09619); experiment: Ex vivo activity: plasma of orally treated mice tested on PDGF-R autophosphorylation in HEK Tel/PDGF-R cells (ELISA); parameters: species or system female Balb/c mice; settings: HEK293, mouse, po, 30 mg/kg po, read-out: % inhibition of autophosphorylation of PDGFR tyrosine kinase in HEK cells
T2 construct: the transmembrane and intracellular part of the PDGF-Rβ receptor; N-terminal part of the Tel transcription factor (ETV6); expressed in transfected cells; host or cells: HEK cells (transient transfection); the other entry of the earlier key: ETV6 (P41212, Transcription factor ETV6)
Procedure: Ex vivo activity of the compounds of the invention was measured. These compounds are thus administered orally to female Balb/c mice at a dose of 10, 30 or 100 mg/kg in suspension or in solution in a vehicle such as methylcellulose/Tween and the inhibition of the tyrosine kinase activity is measured in vitro in a cell test, using plasma collected at 15 minutes, 1 hour and 4 hours.
1) Protocol for Administration of the Products to the Mice
The products are prepared in a mortar with 0.5% Tween 80 and 0.6% methylcellulose qs final volume. Depending on the case, preparations of different vehicles may be used: water, mixture of labrasol solutol 5% glucose-water. The suspended or dissolved products are administered by gavage (10 ml/kg) to female Balb/c mice 8 to 15 weeks old.
The animals are then collected at the time given by the protocol (15 min, 1 hour, 4 hours, 16 hours).
The animals are anaesthetized by intraperitoneal injection (10 ml/kg) of a ketamine (0.1 g/kg)-xylazine (20 mg/kg) mixture. […] The blood sample is collected from the vein or the artery using a dry syringe and needle. The blood is immediately transferred into heparin lithium tubes (BD microtainer). Centrifugation for 3 minutes at 12 000 rpm allows recovery of the plasma, on which the biochemical test may be performed after storage by freezing at −20° C.
2) Preparation of the HEK Tel/PDGF-R Cells and Measurement of the Phosphorylation of PDGF-R
In order to detect the ex vivo activity of the products using the mouse plasmas, the HEK cells are transiently transfected beforehand with an expression vector coding for the fusion protein Tel/PDGF-R (fusion protein described previously). After 24 hours of transfection, the cells are deprived of serum overnight and then incubated for 30 minutes with the animal plasmas treated with the products of the invention. The cells are then lysed in RIPA buffer, and detection of the phosphorylation of PDGF-Rβ is then performed via the ELISA technique, using a commercial kit (R&D Systems, DYC1767). The results are expressed as a percentage of inhibition of the autophosphorylation.
In this test of measurement of the ex vivo activity, the effect of the compounds of the invention is quantified by the percentage of inhibition of phosphorylation of the kinase domain of the PDGF-Rβ receptor in HEK cells, induced by the inhibitory activity of the product present in the plasma of the treated animals, as described in the following table: […]

T2 sequence (P09619 with tags, fused parts or gaps): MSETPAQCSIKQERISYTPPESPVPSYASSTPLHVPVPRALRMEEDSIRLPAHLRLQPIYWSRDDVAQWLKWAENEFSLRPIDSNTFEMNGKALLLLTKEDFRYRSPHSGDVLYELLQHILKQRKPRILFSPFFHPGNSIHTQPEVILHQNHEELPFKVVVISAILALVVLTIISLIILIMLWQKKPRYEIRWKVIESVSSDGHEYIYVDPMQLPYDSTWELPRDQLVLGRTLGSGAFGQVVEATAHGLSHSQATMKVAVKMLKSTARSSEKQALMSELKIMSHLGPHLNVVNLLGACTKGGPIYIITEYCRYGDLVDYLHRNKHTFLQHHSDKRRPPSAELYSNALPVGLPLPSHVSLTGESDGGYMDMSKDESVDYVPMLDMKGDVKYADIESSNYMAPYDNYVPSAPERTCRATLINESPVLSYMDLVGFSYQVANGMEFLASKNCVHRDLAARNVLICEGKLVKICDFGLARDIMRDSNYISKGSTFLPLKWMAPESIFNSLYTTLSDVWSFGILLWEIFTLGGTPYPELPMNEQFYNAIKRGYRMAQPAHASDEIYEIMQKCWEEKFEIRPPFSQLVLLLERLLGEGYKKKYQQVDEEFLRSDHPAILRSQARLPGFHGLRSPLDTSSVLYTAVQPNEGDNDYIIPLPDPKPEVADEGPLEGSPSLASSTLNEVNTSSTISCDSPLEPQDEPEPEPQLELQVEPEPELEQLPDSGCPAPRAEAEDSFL

IC50 [1] [nM] | inhibition at 30 mg/kg ([2]; plasma collected at 15 min) [%] | inhibition at 30 mg/kg ([2]; plasma collected at 1 h) [%] | inhibition at 30 mg/kg ([2]; plasma collected at 4 h) [%] | SMILES
190 | 85 | 57 | 74 | CCN1CC(F)(F)C[C@H]1CNC(=O)Cc1ccc(-c2ccc3c(=O)c(C(=O)NC)c(N)n(CC)c3n2)cc1 [compound 24, 2-amino-1-ethyl-7-{4-[2-({[(2S)-1-ethyl-4,4-difluoropyrrolidin-2-yl]methyl}-amino)-2-oxoethyl]phenyl}-N-methyl-4-oxo-1,4-dihydro-1,8-naphthyridine-3-carboxamide]
56 | 80 | 82 | 75 | CCn1c(N)c(C(=O)NC)c(=O)c2ccc(-c3ccc(CC(=O)NCC4COCCN4C4CC4)cc3)nc21 (centres unmarked) [compound 33, 2-amino-7-[4-(2-{[(4-cyclopropylmorpholin-3-yl)methyl]amino}-2-oxoethyl)phenyl]-1-ethyl-N-methyl-4-oxo-1,4-dihydro-1,8-naphthyridine-3-carboxamide]
